The values that follow come from PMC10794345, “Analysis of vascular disruption in zebrafish embryos as an endpoint to predict developmental toxicity” (Archives of Toxicology, 2023).

Structures are written as SMILES. Like-named read-outs stand apart in the source and are kept apart here.

The test system of data set [1] is zebrafish embryos (wild-type strain OBI/WIK). The data set is described as follows: Morphological features and heart rate by automated imaging (VAST/FishInspector) at 96 hpf. The format is in vivo, zebrafish (D. rerio). The note with it: embryos exposed beginning at 3 hpf; not observed when exposure started at 24 hpf. As for the experimental part:
Automated imaging of zebrafish developmental phenotypes was conducted with the VAST BioImager (Union Biometrica, Gees, Belgium (Pardo-Martin et al. [2010]; Pulak [2016])) equipped with a large particle sampler (LP sampler, Union Biometrica). Lateral and dorsoventral images were obtained at 10 µm resolution at 96 hpf. Prior to imaging, all embryos were anesthetized by adding 20 µl tricaine solution ([…] tricaine, TRIS 26 mM, pH 7.5 ± 0.1) to each well of the microplate. Images were processed with an amended version (1.70, available via https://codebase.helmholtz.cloud/ufz/tb3-cite/biotox/FishInspector) of the FishInspector imaging software (Teixidó et al. [2019]). The FishInspector software allows to automatically annotate morphological features including body contour, eye, lower mouth tip, pericard, otoliths, notochord, swimbladder, and yolk and to calculate diverse metrics such as feature length, size, curvature indices, or angle between feature-connecting lines. In contrast to the previously published version, FishInspector 1.70 detects morphological features based on a deep learning approach using the Matlab Neural Network Toolbox and Matlab Image Processing Toolbox (Mathworks, Natick, […]). In addition, metric calculation was included into the software, and meta information such as test compound, exposure window or test concentration was associated to each image using a microplate layout file. To facilitate training of the models, two additional programs were generated in Matlab including FishTrainer 0.9 (for training of semantic segmentation models of structural features) and FishClassificator 0.9 (for training of position classes to be used in automated flipping of images) available via same repository as FishInspector software. For image training, image size was adjusted to 450 × 300 pixel to reduce computing time. This resolution was sufficient to detect the selected features (data not shown). For training of the deep learning models, approximately 3000 previously annotated images (Teixidó et al. [2022]) were used. The automated annotations were corrected by the user in the event that they were not adequately detecting visible structures. User-bias was avoided by a blinded assessment of images.
FishInspector provided a JSON file corresponding to each image file containing the coordinates of all features and the applied smoothing factor. All images and videos used for this publication can be found at the BioImage Archive S-BIAD954 (https://www.ebi.ac.uk/biostudies/bioimages/studies/S-BIAD954). For each image, a csv file was generated containing calculated metrics. The software automatically provides a summary table containing metrics r of individual embryos. […] The analyzed file includes endpoint names based on the FishInspector software. […]

In data set [2] the test system is early life stage zebrafish. The note with it: cited from earlier work.
Data set [3] concerns zebrafish embryos (wild-type strain OBI/WIK). The data set is described as follows: ISV inhibition (angiogenesis) by video subtraction in wildtype zebrafish embryos. Type of data set: in vivo, zebrafish (D. rerio). As for the experimental part:
A wild-type adult zebrafish strain (D. rerio, strain OBI/WIK, generation F3), originating from an in-house cross of zebrafish strains UFZ-OBI and WIK, was used for all experiments. The Tg(kdr:EGFP) strain was kindly provided by the University of Jena. Fish were fed twice daily with dry food (SDS-400, Special Diets Services, Essex England) and once daily with Artemia sp. […] Spawning trays were inserted 4–6 h before the end of the light cycle. The following day, spawning was initiated by the onset of light and eggs were collected within 1 h. Exposure in all experiment was ceased at 96 hpf.
Exposure was conducted in rectangular 96-well microplates (Clear Polystyrene, flat bottom, Uniplate, Whatman, GE Healthcare) covered by a lid with a test volume of 400 µL of exposure media. For each replicate one embryo per well and 16 wells per concentration were assessed. Experiments were performed with at least two replicates on independent days and breeding.
To determine the number of ISVs in the trunk region, high-resolution images of 96 hpf-old zebrafish embryos were recorded using a Leica DM6B-Z microscope (Leica, Wetzlar, Germany) attached to the VAST imaging system, and a camera (Leica DFC9000 sCMOS, objective: HC APO L U-V-I 20x/0.50 WATER UV). A series of 20 images with a frame rate of 20 images per second and a 2 × 2 pixel binning was recorded in autofocus mode for each embryo.
A series of MATLAB scripts (Supplement File ‘Workflow 3.m’ and ‘Workflow 4.m’) was used to convert the image series into a video and to visualize the blood vessel by applying a video subtraction approach (Figure SI1). Briefly, each video frame was subtracted from the average image of the whole image sequence and converted to a binary image by applying a Gaussian blur (σ = 5) and a threshold of 0.025 to obtain optimal contrast in binary images. Subsequently, the sum of all binary images was calculated. Due to movement of the blood cells the subtraction approach removed all parts from the image which were not moving resulting in an image of the blood vessels. This binary image of the blood vessel network in the zebrafish embryo tail was then processed with the FishInspector annotation software (version 1.70). […] The number of ISVs was obtained by application of a KNIME workflow to FishInspector annotation files. Subsequently concentration–response analysis was conducted using a KNIME workflow. The coefficient of variation (CV) of controls was calculated for both the subtraction and the fluorescence-based method by dividing the standard deviation of individual embryos with the control mean: CVControl=SD/Mean.
The assessment of lethality and morphological features was based on the percentage of embryos affected. Therefore, morphological endpoints were dichotomized, i.e. feature metrics were converted to the percentage of embryos deviating from controls. An embryo was considered to deviate when it was outside 1.5-fold of the standard deviation range of the mean of the control group. The control mean was determined by pooling control embryos across all experiments (n = 160) (available at git.ufz.de). For heart rate and angiogenesis (number of ISVs) the analysis was based on normalized values, i.e. for each experiment the values of the treatment were divided by the control value. The experiments were designed to calculate effect concentrations based on modelled curve fits. Different concentrations were used in at least two independent replicates, with means of each replicate based on the exposure of 16 different embryos per concentrations. Effect concentration were only modeled when three conditions were met. […] (2) The Akaike information criterion (AIC) for the log-logistic model was lower than the AIC for a linear model with slope 0 (lower p values for the letter would indicate that there is no trend in the data).

[4] abbreviates: Danio rerio, 24–96 hpf exposure, ± 95% confidence intervals, read-out: IC50 of ISV inhibition.

In the case of `CN(C)c1ccc(C=C2C(=O)Nc3ccccc32)cc1` [SU4312], the “Swim bladder inflation (in words)” value in data set [1] is “impaired swim bladder inflation”. Moreover, the IC50 was 1800 nM in data set [2] (ref Tal et al. [2014], read-out: IC50 (ISV inhibition)); 2300 ± 420 nM in data set [3] (3–96 hpf exposure, ± 95% confidence intervals, read-out: IC50 of ISV inhibition); 2590 ± 600 nM in data set [3] (24–96 hpf exposure, ± 95% confidence intervals, read-out: IC50 of ISV inhibition); 90 nM in data set [3] (exposure window not stated at this place, read-out: IC50 / loss of ISV number, current study as restated in discussion).
For the compound `Cc1cc(C)c(/C=C2\C(=O)Nc3ccccc32)[nH]1` [SU5416], the “Swim bladder inflation (in words)” value in data set [1] is listed as “impaired swim bladder inflation”. Also, in data set [2] (late exposure scenario, 40 µM, ref Parng et al. [2002]), the “Reduction (ISV)” value was 40%. Further, the “Concentration with complete ISV inhibition” value in data set [2] (late exposure scenario, ref Panneerselvan and Ragunathan [2018]) is 2 µM. In addition, in data set [2] (ref Serbedzija et al. [1999]), the “Concentration with inhibition of ISV formation” value is 1 µM. Besides, the IC50 in data set [3] (setting [4]) turned out to be 2100 ± 350 nM.
Take `CNC(=O)c1cc(Oc2ccc(NC(=O)Nc3ccc(Cl)c(C(F)(F)F)c3)cc2)ccn1` [Sorafenib]: the “Swim bladder inflation (in words)” value in data set [1] is given as “impaired swim bladder inflation”. In addition, the IC50 in data set [2] (ref Lin et al. [2019], read-out: IC50 from scoring system of different ISV length) is 530 nM; in data set [3] (Danio rerio, 3–96 hpf exposure, ± 95% confidence intervals, read-out: IC50 of ISV inhibition), 1370 ± 100 nM; in data set [3] (setting [4]), 1360 ± 240 nM.
